# Laboratory results taken from patent US11840551B2, “Compositions and methods of modulating the immune response by activating alpha protein kinase 1” (Shanghai Yao Yuan Biotechnology Co., Ltd., priority 2017, dated 2023).
# Assays:
# ALPK1 [1] = target: T1, ALPK1 (Homo sapiens, UniProt Q96QP1); test: Cell-free kinase assay of ALPK1 autophosphorylation (Western, anti-phospho-threonine); format: biochemical; settings: 2 nM ALPK1 with ATP, 25° C., 1 h; H1b-ADP 10, 1, 0.2 nM; HBP and HMP-1bP 1, 10, 100 nM
# T1 sequence (Q96QP1 whole entry): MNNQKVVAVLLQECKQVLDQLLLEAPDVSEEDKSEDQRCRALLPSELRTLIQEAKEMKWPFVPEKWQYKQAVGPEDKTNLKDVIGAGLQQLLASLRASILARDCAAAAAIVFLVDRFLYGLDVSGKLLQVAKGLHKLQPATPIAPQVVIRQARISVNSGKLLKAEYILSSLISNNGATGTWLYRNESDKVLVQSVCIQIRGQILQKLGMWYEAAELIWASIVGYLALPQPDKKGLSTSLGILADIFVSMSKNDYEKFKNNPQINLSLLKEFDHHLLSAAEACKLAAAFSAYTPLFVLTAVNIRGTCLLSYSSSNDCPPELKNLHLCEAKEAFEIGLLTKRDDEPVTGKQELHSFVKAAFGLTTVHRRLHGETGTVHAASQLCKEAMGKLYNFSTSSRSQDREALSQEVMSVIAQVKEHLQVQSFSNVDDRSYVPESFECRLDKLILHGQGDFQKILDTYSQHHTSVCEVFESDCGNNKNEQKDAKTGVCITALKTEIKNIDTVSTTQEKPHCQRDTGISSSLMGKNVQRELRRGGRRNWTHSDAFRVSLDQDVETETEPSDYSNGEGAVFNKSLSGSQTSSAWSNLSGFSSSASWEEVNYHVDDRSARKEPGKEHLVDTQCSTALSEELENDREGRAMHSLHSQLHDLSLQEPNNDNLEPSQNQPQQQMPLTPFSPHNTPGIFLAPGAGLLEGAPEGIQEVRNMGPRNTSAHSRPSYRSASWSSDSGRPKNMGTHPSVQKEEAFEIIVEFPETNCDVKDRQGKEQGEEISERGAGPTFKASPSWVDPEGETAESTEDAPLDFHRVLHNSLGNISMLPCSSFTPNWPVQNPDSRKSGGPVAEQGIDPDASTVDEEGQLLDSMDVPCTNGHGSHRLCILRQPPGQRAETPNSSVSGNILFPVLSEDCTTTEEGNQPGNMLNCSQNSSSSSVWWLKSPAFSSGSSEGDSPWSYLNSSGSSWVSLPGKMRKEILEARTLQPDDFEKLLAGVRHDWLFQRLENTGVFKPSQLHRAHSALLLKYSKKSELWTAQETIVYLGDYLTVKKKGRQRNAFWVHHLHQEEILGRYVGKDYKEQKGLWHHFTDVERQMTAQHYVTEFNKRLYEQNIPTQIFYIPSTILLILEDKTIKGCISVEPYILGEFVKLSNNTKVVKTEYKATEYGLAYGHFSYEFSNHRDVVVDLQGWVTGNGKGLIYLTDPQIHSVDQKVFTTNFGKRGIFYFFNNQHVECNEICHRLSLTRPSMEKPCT
# Procedure: ALPK1 activation results in its autophosphorylation. Accordingly, we next asked whether the binding of H1b-ADP to ALPK1 was sufficient to induce ALPK1 autophosphorylation. Phosphorylation assays were performed according to standard protocols. Briefly, ALPK1 was incubated (2 nM, 25° C., 1 h) in assay buffer (20 μl, 25 mM HEPES pH 7.5, 50 mM KCl, 0.1 mM EDTA, 0.1 mM EGTA, 2 mM DTT, 1.5 mM CaCl2, 10 mM MgCl2) with ATP and chemically synthesized HBP, HMP-1bP, or H1b-ADP followed by denaturing gel electrophoresis and Western analysis with an anti-phospho-threonine antibody (CST) to detect autophosphorylation of ALPK1. […] The range of concentrations of HBP and HMP-1bP used in this assay (1 nM, 10 nM, 100 nM) was 10-fold higher than that used for H1b-ADP.
# CT26 cells = test: CT26 tumor xenograft model, tumor growth (tumor volume); format: in vivo, BALB/c mice
# Procedure: We used a CT26 tumor xenograft model to test the anti-cancer activity of H1b-ADP. Tumor cells (2×10^5 per 100 uL CT26 cells) were inoculated subcutaneously into the right flank of BALB/c mice. At day 6, mice whose tumors had reached 3-5 mm in diameter were randomized and grouped into three groups (n=8 each group), control, HMP-1bP (580 ug), and H1b-ADP (1.2 ug). Injections were performed using a total volume of 20 uL at days 6, 8, 10, 12, and 14 post inoculation. Tumor volumes were calculated every 2 days from caliper measurements of tumor dimension using the formula (L×W^2)/2, where L is the longer measurement.
# To test whether H1b-ADP could augment an anti-tumor response by a checkpoint inhibitor, we tested the effects of co-administration with an anti-PD1 antibody. Tumor cells (2×10^5 per 100 μL CT26 cells) were inoculated subcutaneously into the left and right flanks of BALB/c mice. At day 7, mice whose tumors had reached 5 mm in diameter were randomized and grouped (n=8 each group) into the following four groups: anti-PD1 antibody; rat IgG; H1b-ADP+rat IgG; H1b-ADP+anti-PD1 antibody. We utilized RMP1-14 as the anti-PD1 antibody (10 mg/kg) and a rat IgG 2a (2A3) as the control IgG. Each of the anti-PD-1 antibody and the control IgG was administered intraperitoneally in a 200 μL volume on days 6, 10, 12, and 17 post-inoculation. H1b-ADP (6.2 μg) was intratumorally injected in a 20 μL volume at day 6, 8, 10, 12, and 15. Tumor volumes were calculated every 2 days from caliper measurements of tumor dimensions using the formula (L×W^2)/2, where L is the longer measurement. The results are shown in FIG. 13A for injected tumors and FIG. 13B for distant tumors. […]
# The experiment was carried out as combo experiments of anti-PD1 except for the following variations. At day 6, mice whose tumors had reached 5 mm in diameter were randomized and grouped into the following four groups: anti-CTLA-4 antibody; rat IgG; H1b-ADP+rat IgG; H1b-ADP+anti-CTLA-4 antibody. We utilized 9D9 (BioxCell) as the anti-CTLA-4 antibody and a rat IgG 2b isotype (MPC-11 clone, BE0086, BioXCell) as the control IgG. Each of the anti-CTLA-4 antibody (25 μg) and the control IgG (25 μg) was administered intraperitoneally in a 200 μL volume on days 6 and 9 post-inoculation. H1b-ADP (6.2 μg) was administered intratumorally in a 20 μL volume on days 6, 7, 9, 11 post-inoculation.
# The experiment was carried out as combo experiments of anti-PD1 except for the following variations. At day 6, mice whose tumors had reached 5 mm in diameter were randomized and grouped into the following four groups: c-di-AM(PS)2; PBS; H1b-ADP; H1b-ADP+c-di-AM(PS)2. We utilized c-di-AM(PS)2 as the STING agonist. […]
# ALPK1 [2] = target: T1, ALPK1; test: IL-8 and TNFα mRNA expression in HEK293 cells with control or ALPK1-directed siRNA (qPCR); format: cell-based; design: silence ALPK1 expression in HEK293 cells; endogenous in cells; host or cells: HEK293; settings: control vs ALPK1-directed siRNA, 4 hours, HBP 500, 100, 20 uM, HMP-1bP 500, 100 uM, H1b-ADP 100, 20, 4, 0.8 nM
# Procedure: To test whether HBP, HMP-1bP, and H1b-ADP were able to induce cytokine expression in an ALPK1 dependent manner, we used an ALPK1-directed small interfering RNA (siRNA) to silence ALPK1 expression in HEK293 cells. Cells were plated (1×10^4 cells/well) into 96-well plates and transfected with either control siRNA or ALPK1-directed siRNA according to the manufacturer's protocols (Lipofectamine™ RNAiMax™, Invitrogen 13778075). Following 2 days of culture, either (1) HBP (500 uM, 100 uM, 20 uM, FIG. 2A-2B) (2) HMP-1bP (500 uM, 100 uM, FIG. 3A-3B), (3) H1b-ADP (100 nM, 20 nM, 4 nM, 0.8 nM, FIG. 4A-4B) was added to culture medium and cells were harvested 4 hours later.
SMILES,autophosphorylation of ALPK1 (ALPK1 [1]),"tumor growth (CT26 cells; intratumoral, days 6, 8, 10, 12, 14, HMP-1bP 580 ug, H1b-ADP 1.2 ug)",IL-8 mRNA expression (ALPK1 [2]),TNFα mRNA expression (ALPK1 [2]),"tumor growth (CT26 cells; Example 7, H1b-ADP 6.2 μg intratumoral, anti-PD1 antibody 10 mg/kg intraperitoneal, injected and distant tumors)"
"O=P(O)(O)O[C@@H]1O[C@H]([C@H](O)CO)[C@@H](O)[C@H](O)[C@@H]1O [HMP-1bP, D-glycero-β-D-manno-heptose-1-phosphate]",not HBP or HMP-1bP induces ATP-dependent autophosphorylation,"but not HMP-1bP, reduced tumor growth",increased in an ALPK1-dependent manner,increased in an ALPK1-dependent manner,–
"Nc1ncnc2c1ncn2[C@@H]1O[C@H](COP(=O)(O)OP(=O)(O)O[C@@H]2O[C@H]([C@H](O)CO)[C@@H](O)[C@H](O)[C@@H]2O)[C@@H](O)[C@H]1O [Compound H1b-ADP, D-glycero-D-manno-heptose-1β-ADP]",phosphorylation of ALPK1 was detected only in the presence of H1b-ADP,–,increased in an ALPK1-dependent manner,increased in an ALPK1-dependent manner,markedly suppressed tumor growth
